From PubChem BioAssay AID1996
Converted amounts (≈) assume the structure as drawn.

conditions: buffer; pH 7.4; 200.0 µM

Structure (SMILES)	solubility kinetic [µg/mL]
Cc1ccc(/C(N)=N/OC(=O)CCCc2ccccc2)cc1	2 (≈ 6.75 µM)
COc1cc2c(cc1OC)C(c1ccccc1Br)NC(=O)C2 (configuration not stated)	> 54.3
O=C(/C=C/c1c(Cl)cccc1Cl)N1CCOCC1	> 42.9
O=[N+]([O-])c1ccc(NCCOc2ccccc2Cl)nc1	1.7 (≈ 5.79 µM)
CC(C)Nc1nc(-c2cccnc2)nc(-c2ccccc2)c1C#N	< 0.1
CC(C)c1ccc(NC(=O)COC(=O)C2CC3C=CC2C3)cc1 (configuration not stated)	22.1 (≈ 70.5 µM)
CC(C)(C)NC(=O)N1CCN(c2nc3ccc(Cl)cc3s2)CC1	1.7 (≈ 4.82 µM)
COc1ccc(NC(=S)N2CCN(C)CC2)cc1	> 39.8
O=C1Nc2ccc(S(=O)(=O)N(CCO)CCO)c3cccc1c23	> 50.5
Cc1ccc(C(=O)NCCCNC(=O)Cc2ccccc2)cn1	> 46.7
O=S(=O)(Nc1ccccc1O)c1ccc(Cl)nc1	35.6 (≈ 125 µM)
Cc1ccc(C(=O)NC2CCc3ccccc3C2=O)cc1 (configuration not stated)	5.8 (≈ 20.8 µM)
CCOC(=O)C1=C(C)NC(C)=C(C(=O)OCC)C1c1ccc(C)o1	1.8 (≈ 5.4 µM)
CCOC(=O)C1=C(C)C(c2ccc(OC)cc2)NC(=O)N1 (configuration not stated)	> 43.5
CC1CCCCC12NC(=O)N(Cc1cc(=O)n3ccsc3n1)C2=O (configuration not stated)	> 52
COc1ccc2cc(C(=O)NCc3ccccc3)[nH]c2c1.Cl	1
C/C(=N/NC(=O)CNC(=O)c1cccnc1)c1ccccc1	> 44.4
N#Cc1ccc(NCCc2ccccn2)c([N+](=O)[O-])c1	> 40.2
Cc1cc(C)c2c(CN3CC(C)OC(C)C3)cc(=O)oc2c1C (configuration not stated)	13.6 (≈ 43.1 µM)
CCOC(=O)C1CCN(C(=O)c2ccc3c(c2)OCCO3)CC1	44.4 (≈ 139 µM)
COc1ccc(NC(=O)Nc2c[nH]c(=O)[nH]c2=O)cc1	10 (≈ 36.2 µM)
CC(=O)N(c1cccc(Br)c1)c1nc(C)cc(C)c1C#N	> 51.6
COCC(C)NC(=O)c1cc2cccc([N+](=O)[O-])c2[nH]1 (configuration not stated)	> 41.6
O=C(NCc1ccccc1)N1CCOc2ccccc21	31.3 (≈ 117 µM)

Structure (SMILES)	solubility kinetic [µg/mL]
CCCc1cc(=O)[nH]c(SCC(=O)Nc2cc(S(=O)(=O)N3CCOCC3)ccc2Cl)n1	63.8 (≈ 131 µM)
Cc1ccc2[nH]c(=O)c(CC(=O)O)c(-c3ccccc3)c2c1	> 44
Cc1ccccc1C(=O)c1c[nH]c(C(=O)NCCc2ccccn2)c1	> 50
CCCn1nc(C(=O)NC2CC2)c2ccccc2c1=O	> 40.7
Cc1ccc2c(c1C)NC(=O)CC(c1ccccc1O)=N2	0.6 (≈ 2.14 µM)
O=C(CCCc1ccccc1)NC12CC3CC(CC(C3)C1)C2	11 (≈ 37 µM)
CC/C(O)=C1\C(=O)CCCC1=NCCc1nc2ccccc2[nH]1	> 46.7
O=C(O)C1CCN(C(=O)c2cccc3ccccc23)CC1	> 42.5
S=c1[nH]c2cc3c(cc2[nH]1)OCCO3	19.7 (≈ 94.6 µM)
Cc1ccc(C(=O)Nc2ccc3c(c2)OCCO3)c(Cl)c1	4.3 (≈ 14.2 µM)
COC(=O)C1CCN(CC(=O)NC(=O)Nc2ccccc2F)CC1	> 50.6
CN(C(=O)c1cc(-c2ccc3c(c2)OCO3)on1)c1ccccc1	6.8 (≈ 21.1 µM)
COc1ccc(OCCN2C(=O)c3cccc(N)c3C2=O)cc1	1.1 (≈ 3.52 µM)
N#C/C(=C\c1ccncc1)c1ccccn1	> 31.1
CC1(C)C(=O)Nc2ccccc2N1C(=O)COC(=O)c1cc(Cl)cc(Cl)c1	2.8 (≈ 6.88 µM)
COc1ccccc1NS(=O)(=O)c1ccc(C(=O)NCC(c2cccs2)N2CCOCC2)cc1 (configuration not stated)	20 (≈ 39.9 µM)
COCC(C)n1c(SCC(=O)NC2CCCCC2C)nc2ccccc2c1=O (configuration not stated)	> 60.5
CN1CCN(CCC(=O)Nc2ccccc2)CC1	> 37.1
COC(=O)c1cc(N2CCNCC2)nc2ccccc12.Cl	39.9
CC(C)(CCO)Nc1ncnc2onc(-c3ccc(F)cc3)c12	> 47.5
CCN(CC(=O)NCc1ccc(F)cc1)C(=O)C1CC1C (configuration not stated)	> 43.9
CCNC(=S)Nc1ccc(OCc2nc3ccccc3s2)cc1	2.8 (≈ 8.15 µM)
COc1ccc(C(=O)NCC(=O)N/N=C(\C)c2ccco2)cc1OC	> 51.8
